In the kinase profiling compilation of Christmann-Franck et al. (2016):

Legend:
Assay in all cases: radiometric filter-binding kinase assay, Kinase HotSpot
Settings in all cases: compound 0.5 µM; ATP 10 µM
[1] = target: CDK1 CCNB1 (human) (UniProt P06493+P14635)
[2] = target: MAPK12 (human) (UniProt P53778)
[3] = target: DAPK1 (human) (UniProt P53355)
[4] = target: PDPK1 (human) (UniProt O15530)
[5] = target: PDGFRB (human) (UniProt P09619)
[6] = target: IKBKE (human) (UniProt Q14164)
[7] = target: ABL2 (human) (UniProt P42684)
[8] = target: CLK4 (human) (UniProt Q9HAZ1)
[9] = target: TAOK1 (human) (UniProt Q7L7X3)
[10] = target: CHEK2 (human) (UniProt O96017)
[11] = target: AURKB (human) (UniProt Q96GD4)
[12] = target: INSR (human) (UniProt P06213)
[13] = target: RPS6KA1 KD1 KD2 (human) (UniProt Q15418)
[14] = target: EPHA1 (human) (UniProt P21709)
[15] = target: PAK4 (human) (UniProt O96013)
[16] = target: LIMK1 (human) (UniProt P53667)
[17] = target: BRAF (human) (UniProt P15056)
[18] = system: ARAF (human), P10398 [Y301D/Y302D]
[19] = target: HIPK1 (human) (UniProt Q86Z02)
[20] = target: TNK2 (human) (UniProt Q07912)
[21] = target: RPS6KB2 (human) (UniProt Q9UBS0)
[22] = target: HCK (human) (UniProt P08631)
[23] = target: PKN2 (human) (UniProt Q16513)
[24] = target: JAK3 JH1 JH2 (human) (UniProt P52333)
[25] = target: CAMK2D (human) (UniProt Q13557)
[26] = target: EGFR (human) (UniProt P00533)
[27] = target: TSSK1B (human) (UniProt Q9BXA7)
[28] = target: CSNK2A2 (human) (UniProt P19784)
[29] = target: TTK (human) (UniProt P33981)
[30] = target: FER (human) (UniProt P16591)
[31] = target: CAMKK2 (human) (UniProt Q96RR4)
[32] = target: PRKCB1 (human) (UniProt P05771)
[33] = target: FGFR3 (human) (UniProt P22607)
[34] = target: MAPK3 (human) (UniProt P27361)
[35] = target: CSNK1G2 (human) (UniProt P78368)
[36] = target: NEK7 (human) (UniProt Q8TDX7)

Chain of BRAF (human) (P15056 whole entry, looked up): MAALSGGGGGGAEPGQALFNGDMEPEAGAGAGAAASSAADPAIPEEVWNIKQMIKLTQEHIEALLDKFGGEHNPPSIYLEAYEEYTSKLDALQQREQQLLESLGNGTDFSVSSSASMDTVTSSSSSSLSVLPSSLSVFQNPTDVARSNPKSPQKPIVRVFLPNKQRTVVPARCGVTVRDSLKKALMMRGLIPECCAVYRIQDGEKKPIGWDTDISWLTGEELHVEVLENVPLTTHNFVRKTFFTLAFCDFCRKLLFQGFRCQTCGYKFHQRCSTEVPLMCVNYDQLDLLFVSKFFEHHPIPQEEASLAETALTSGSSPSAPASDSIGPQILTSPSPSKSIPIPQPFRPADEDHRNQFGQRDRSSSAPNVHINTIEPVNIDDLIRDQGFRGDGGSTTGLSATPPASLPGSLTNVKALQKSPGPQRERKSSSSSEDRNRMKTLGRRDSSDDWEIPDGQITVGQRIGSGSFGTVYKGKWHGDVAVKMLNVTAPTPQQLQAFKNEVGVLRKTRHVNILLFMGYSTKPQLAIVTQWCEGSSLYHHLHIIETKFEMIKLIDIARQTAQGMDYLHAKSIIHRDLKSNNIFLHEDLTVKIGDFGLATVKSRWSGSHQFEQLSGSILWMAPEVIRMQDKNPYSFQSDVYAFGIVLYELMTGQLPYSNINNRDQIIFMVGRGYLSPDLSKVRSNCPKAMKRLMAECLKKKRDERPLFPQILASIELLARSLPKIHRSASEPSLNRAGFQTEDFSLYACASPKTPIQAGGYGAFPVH
Chain of CLK4 (human) (Q9HAZ1 whole entry, looked up): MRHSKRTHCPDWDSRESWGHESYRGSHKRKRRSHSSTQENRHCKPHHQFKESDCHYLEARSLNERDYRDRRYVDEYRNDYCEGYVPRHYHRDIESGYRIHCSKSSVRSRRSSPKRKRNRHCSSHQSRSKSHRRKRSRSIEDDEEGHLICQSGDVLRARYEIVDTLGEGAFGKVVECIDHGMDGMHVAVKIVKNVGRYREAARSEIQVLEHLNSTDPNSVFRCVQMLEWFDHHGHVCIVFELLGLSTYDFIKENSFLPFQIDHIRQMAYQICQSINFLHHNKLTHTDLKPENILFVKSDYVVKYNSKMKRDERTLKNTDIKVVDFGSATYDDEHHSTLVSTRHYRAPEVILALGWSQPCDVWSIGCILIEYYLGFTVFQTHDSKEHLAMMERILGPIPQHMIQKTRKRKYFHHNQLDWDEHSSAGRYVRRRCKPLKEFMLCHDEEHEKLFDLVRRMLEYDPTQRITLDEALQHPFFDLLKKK
Chain of MAPK12 (human) (P53778 whole entry, looked up): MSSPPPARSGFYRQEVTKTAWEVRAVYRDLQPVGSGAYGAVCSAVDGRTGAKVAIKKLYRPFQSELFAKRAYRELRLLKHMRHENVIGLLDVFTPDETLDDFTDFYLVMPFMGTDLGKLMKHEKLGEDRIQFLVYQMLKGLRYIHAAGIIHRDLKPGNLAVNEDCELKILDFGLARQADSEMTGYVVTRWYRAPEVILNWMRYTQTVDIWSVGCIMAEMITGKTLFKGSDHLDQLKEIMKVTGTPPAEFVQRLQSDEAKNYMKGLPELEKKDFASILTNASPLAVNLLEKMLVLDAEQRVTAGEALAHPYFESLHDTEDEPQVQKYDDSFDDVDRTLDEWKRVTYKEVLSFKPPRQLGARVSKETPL
Chain of TAOK1 (human) (Q7L7X3 whole entry, looked up): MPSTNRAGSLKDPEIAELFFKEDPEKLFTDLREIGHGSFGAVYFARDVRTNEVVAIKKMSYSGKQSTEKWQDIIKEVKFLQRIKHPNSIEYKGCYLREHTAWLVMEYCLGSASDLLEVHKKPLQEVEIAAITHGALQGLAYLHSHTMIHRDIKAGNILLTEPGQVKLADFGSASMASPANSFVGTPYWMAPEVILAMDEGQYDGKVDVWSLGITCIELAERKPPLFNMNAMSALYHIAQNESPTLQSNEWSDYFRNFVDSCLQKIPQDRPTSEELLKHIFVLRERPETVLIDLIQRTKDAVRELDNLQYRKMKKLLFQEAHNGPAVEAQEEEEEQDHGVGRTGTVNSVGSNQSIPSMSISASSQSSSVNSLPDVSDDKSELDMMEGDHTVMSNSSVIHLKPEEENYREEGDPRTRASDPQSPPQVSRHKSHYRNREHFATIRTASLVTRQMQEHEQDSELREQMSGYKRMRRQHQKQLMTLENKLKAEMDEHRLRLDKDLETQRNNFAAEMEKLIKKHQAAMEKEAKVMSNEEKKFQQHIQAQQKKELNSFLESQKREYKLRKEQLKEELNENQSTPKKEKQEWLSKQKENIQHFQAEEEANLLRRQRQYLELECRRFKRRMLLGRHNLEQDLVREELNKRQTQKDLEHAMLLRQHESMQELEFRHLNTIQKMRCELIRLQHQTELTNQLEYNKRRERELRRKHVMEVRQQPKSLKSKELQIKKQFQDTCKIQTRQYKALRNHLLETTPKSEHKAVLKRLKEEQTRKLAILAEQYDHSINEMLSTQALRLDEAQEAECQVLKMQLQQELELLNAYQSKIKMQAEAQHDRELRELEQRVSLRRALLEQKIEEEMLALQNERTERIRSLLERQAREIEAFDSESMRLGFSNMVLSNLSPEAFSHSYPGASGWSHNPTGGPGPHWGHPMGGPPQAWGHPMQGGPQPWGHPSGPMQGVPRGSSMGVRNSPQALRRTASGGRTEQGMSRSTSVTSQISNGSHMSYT
Chain of EGFR (human) (P00533 whole entry, looked up): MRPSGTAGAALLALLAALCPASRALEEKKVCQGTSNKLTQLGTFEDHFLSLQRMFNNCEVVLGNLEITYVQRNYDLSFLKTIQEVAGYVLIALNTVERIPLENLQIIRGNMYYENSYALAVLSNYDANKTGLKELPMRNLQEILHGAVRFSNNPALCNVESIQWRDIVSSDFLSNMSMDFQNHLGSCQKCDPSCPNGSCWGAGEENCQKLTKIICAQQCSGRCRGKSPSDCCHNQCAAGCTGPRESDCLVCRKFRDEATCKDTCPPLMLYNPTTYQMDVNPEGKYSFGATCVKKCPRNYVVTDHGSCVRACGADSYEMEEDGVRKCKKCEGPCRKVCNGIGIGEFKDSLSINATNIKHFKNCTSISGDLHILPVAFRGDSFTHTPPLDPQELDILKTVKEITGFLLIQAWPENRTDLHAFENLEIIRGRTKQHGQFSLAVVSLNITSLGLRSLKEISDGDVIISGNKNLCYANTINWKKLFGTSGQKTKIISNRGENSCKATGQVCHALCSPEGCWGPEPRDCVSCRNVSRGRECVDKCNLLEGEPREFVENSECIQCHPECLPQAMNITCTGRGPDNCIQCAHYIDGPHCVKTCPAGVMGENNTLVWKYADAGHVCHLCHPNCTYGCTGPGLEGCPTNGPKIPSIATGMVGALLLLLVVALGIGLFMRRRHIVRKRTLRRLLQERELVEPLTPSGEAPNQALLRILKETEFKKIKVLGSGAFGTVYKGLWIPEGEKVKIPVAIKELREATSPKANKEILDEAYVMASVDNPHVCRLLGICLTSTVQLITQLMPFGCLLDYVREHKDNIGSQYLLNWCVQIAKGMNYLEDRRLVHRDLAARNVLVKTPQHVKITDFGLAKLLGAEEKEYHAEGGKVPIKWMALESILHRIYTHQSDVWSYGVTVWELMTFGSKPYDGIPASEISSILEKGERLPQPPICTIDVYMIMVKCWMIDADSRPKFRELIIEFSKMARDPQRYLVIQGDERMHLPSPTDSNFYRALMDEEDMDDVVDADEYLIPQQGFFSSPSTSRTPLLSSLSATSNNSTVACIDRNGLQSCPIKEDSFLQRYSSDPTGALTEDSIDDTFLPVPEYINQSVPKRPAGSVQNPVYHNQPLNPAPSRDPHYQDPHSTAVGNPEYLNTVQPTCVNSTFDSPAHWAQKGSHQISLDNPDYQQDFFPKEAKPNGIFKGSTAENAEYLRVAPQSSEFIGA
Chain of PKN2 (human) (Q16513 whole entry, looked up): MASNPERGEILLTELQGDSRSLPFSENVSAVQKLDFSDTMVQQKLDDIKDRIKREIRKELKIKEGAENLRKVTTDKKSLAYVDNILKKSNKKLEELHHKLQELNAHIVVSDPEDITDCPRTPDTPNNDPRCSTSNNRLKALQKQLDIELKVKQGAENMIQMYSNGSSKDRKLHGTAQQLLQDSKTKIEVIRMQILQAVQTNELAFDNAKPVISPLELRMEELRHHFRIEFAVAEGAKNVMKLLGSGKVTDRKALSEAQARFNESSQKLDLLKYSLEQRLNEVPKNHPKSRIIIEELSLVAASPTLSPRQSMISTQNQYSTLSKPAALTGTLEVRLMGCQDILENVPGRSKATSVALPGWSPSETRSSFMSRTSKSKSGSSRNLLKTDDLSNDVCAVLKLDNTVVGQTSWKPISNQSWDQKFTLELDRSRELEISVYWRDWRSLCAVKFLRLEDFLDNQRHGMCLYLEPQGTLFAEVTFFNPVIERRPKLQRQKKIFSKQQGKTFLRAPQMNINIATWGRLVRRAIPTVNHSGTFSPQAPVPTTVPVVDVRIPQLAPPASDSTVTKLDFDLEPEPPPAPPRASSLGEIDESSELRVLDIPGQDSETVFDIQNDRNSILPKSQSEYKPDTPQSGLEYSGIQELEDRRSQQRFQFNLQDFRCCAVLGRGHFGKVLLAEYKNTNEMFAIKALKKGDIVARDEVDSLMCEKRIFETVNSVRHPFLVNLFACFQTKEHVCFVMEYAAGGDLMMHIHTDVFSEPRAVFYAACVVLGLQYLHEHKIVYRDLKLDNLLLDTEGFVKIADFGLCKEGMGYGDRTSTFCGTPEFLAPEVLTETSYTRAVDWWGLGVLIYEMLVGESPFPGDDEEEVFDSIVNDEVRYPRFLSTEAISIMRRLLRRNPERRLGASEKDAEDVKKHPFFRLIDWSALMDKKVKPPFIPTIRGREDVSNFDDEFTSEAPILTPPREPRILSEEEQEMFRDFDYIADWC

SMILES | residual activity [1] [%] | residual activity [2] [%] | residual activity [3] [%] | residual activity [4] [%] | residual activity [5] [%] | residual activity [6] [%] | residual activity [8] [%] | residual activity [9] [%] | residual activity [10] [%] | residual activity [12] [%] | residual activity [13] [%] | residual activity [14] [%] | residual activity [15] [%] | residual activity [16] [%] | residual activity [17] [%] | residual activity [18] [%] | residual activity [19] [%] | residual activity [21] [%] | residual activity [22] [%] | residual activity [23] [%] | further results
CCN1/C(=C/C(C)=O)Sc2ccc(OC)cc21 | 93.2 | 99.8 | 109 | 97.5 | 107 | 99 | 18.5 | 92.4 | 104 | 101 | 94 | 95.8 | 108 | 108 | 95.3 | 128 | 95 | 107 | 97.5 | 99.7 | residual activity [7]: 96.1%; residual activity [11]: 87.9%; residual activity [20]: 102%; residual activity [24]: 103%; residual activity [25]: 92.2%; residual activity [26]: 99.1%; residual activity [27]: 110%; residual activity [28]: 89.7%; residual activity [29]: 88.7%; residual activity [30]: 87.9%; residual activity [31]: 95.5%; residual activity [32]: 99.4%; residual activity [33]: 99.1%; residual activity [34]: 105%
CC(C)n1cnc2c(Nc3cccc(Cl)c3)nc(NCCO)nc21 | 46.6 | 102 | 78.8 | 96.8 | 94.7 | 97.6 | 36.1 | 94.4 | 78.5 | 97.3 | 69.1 | 94.1 | 105 | 105 | 97 | 107 | 99.8 | 97 | 78 | 90.8 | residual activity [7]: 60.7%; residual activity [11]: 106%; residual activity [35]: 20.6%; residual activity [20]: 70.8%; residual activity [24]: 24.7%; residual activity [36]: 93.9%; residual activity [25]: 84.2%; residual activity [26]: 91.5%; residual activity [27]: 91.9%; residual activity [28]: 91.8%; residual activity [29]: 82.5%; residual activity [30]: 79.5%; residual activity [31]: 68.2%; residual activity [32]: 102%; residual activity [33]: 95.1%; residual activity [34]: 111%
O=C1Nc2cc(Br)ccc2/C1=C1/Nc2ccccc2/C1=N\O | 50.5 | 93.8 | 90 | 86.4 | 35.2 | 66.3 | 97 | 98.5 | 48.3 | 92.5 | 47.2 | 98.5 | 95.3 | 51.7 | 98.2 | 99.8 | 103 | 100 | 13.3 | 85.6 | residual activity [11]: 39.1%; residual activity [35]: 105%; residual activity [24]: 53.3%; residual activity [36]: 103%; residual activity [25]: 23%; residual activity [26]: 89%; residual activity [27]: 83%; residual activity [28]: 63.1%; residual activity [29]: 69.8%; residual activity [30]: 69.8%; residual activity [31]: 70.1%; residual activity [32]: 98.5%; residual activity [33]: 54.6%; residual activity [34]: 83.3%
Nc1n[nH]c2nnc(-c3c(-c4ccccc4)nn4ccccc34)cc12 | 90.2 | 104 | 95.9 | 104 | 114 | 95.5 | 101 | 95.8 | 97 | 78.3 | 95.1 | 92.6 | 101 | 98.2 | 95.7 | 98.4 | 99.7 | 104 | 91.1 | 98.9 | residual activity [7]: 57.5%; residual activity [11]: 96.8%; residual activity [35]: 93.7%; residual activity [20]: 82.7%; residual activity [24]: 105%; residual activity [36]: 95.3%; residual activity [25]: 96.5%; residual activity [26]: 83.9%; residual activity [27]: 102%; residual activity [28]: 93.4%; residual activity [29]: 110%; residual activity [30]: 90.8%; residual activity [31]: 101%; residual activity [32]: 96.5%; residual activity [33]: 102%; residual activity [34]: 65.8%
Nc1nc(Nc2ccc(S(N)(=O)=O)cc2)nn1C(=O)c1c(F)cccc1F | 5.65 | 89.9 | 93.8 | 92.3 | 89.1 | 95.9 | 41.6 | 18.8 | 63.6 | 94.9 | 42.1 | 73.7 | 90 | 16.6 | 55 | 93.1 | 106 | 104 | 86.2 | 85.6 | residual activity [7]: 53.9%; residual activity [20]: 68%; residual activity [24]: 8.5%; residual activity [36]: 99%; residual activity [25]: 94.6%; residual activity [26]: 97%; residual activity [27]: 85.5%; residual activity [28]: 97.5%; residual activity [29]: 77.5%; residual activity [30]: 82%; residual activity [31]: 61.5%; residual activity [32]: 88.2%; residual activity [33]: 46.4%; residual activity [34]: 108%
